{"source": "paper PMC10076467", "about": "(EJNMMI Research, 2023)", "key": {"σ1 receptor": {"target": "σ1 receptor", "conditions": "cited from earlier work"}, "GluN2B receptors [1]": {"target": "T1, GluN2B receptors (Rattus norvegicus, UniProt P35439+Q00960)", "T1 construct": "from tissue; host or cells: brain of living male rats (PET imaging)", "T1 sequence (Q00960 27-1482, other chains not shown)": "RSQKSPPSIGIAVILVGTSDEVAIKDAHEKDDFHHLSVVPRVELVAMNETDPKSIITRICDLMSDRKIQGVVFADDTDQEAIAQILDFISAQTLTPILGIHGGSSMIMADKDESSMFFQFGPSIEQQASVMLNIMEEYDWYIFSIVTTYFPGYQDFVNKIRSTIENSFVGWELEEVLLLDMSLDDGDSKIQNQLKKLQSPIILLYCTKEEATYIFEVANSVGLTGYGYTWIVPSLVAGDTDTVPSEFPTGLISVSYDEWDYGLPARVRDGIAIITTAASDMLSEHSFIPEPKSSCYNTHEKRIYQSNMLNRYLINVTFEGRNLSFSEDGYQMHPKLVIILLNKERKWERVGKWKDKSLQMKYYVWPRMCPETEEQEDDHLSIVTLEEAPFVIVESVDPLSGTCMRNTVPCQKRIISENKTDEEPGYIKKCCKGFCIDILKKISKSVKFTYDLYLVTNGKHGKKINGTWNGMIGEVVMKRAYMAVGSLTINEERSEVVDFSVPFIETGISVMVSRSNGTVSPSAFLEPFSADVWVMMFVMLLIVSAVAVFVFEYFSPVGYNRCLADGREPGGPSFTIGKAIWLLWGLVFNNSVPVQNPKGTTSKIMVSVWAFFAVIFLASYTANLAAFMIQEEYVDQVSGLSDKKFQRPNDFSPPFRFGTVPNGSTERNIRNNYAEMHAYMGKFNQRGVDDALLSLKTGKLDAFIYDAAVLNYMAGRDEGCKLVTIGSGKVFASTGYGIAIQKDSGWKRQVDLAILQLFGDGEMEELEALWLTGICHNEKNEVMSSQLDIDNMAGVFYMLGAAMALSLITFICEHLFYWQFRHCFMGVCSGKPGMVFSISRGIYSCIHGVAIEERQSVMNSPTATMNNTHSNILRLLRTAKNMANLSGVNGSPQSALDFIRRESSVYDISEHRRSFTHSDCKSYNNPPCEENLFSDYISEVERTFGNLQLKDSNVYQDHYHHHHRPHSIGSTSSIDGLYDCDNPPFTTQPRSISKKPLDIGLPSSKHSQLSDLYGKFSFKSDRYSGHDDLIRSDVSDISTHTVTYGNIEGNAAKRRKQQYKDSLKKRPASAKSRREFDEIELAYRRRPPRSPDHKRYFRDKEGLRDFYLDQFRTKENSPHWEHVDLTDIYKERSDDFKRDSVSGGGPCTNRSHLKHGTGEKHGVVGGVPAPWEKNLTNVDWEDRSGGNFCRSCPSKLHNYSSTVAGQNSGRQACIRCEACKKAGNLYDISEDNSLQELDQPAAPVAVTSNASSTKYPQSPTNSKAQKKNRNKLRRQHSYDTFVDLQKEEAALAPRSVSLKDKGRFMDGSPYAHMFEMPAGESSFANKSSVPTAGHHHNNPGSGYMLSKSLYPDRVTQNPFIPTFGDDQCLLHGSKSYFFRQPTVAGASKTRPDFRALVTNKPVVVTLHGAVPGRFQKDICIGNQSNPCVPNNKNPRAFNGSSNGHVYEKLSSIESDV", "experiment": "ED50 for pre-blocking of GluN2B radioligand uptake in rat whole brain (PET)", "format": "in vivo", "conditions": "for effect of pre-administration on whole rat brain radioactivity uptake of GluN2B radioligands: ^11C-NR2B-Me enantiomers (also ^11C-(S)-NR2B-SMe); for ED50 in rat whole brain in vivo ^11C-(+)-NR2B-Me: radioligand ^11C-(+)-NR2B-Me; for ED50 in rat whole brain in vivo ^11C-(+)-NR2B-Me / ED50 in rat whole brain in vivo ^11C-(−)-NR2B-Me: AUC 20-90 min; for ED50 in rat whole brain in vivo ^11C-(−)-NR2B-Me: radioligand ^11C-(−)-NR2B-Me", "procedure": "For radioligand injection, a polyethylene catheter (PE 10) was inserted into the penile vein of a male rat and then secured with tissue adhesive and tape. […] Body temperature was monitored with a rectal probe. All PET scans were performed on a microPET Focus 220 scanner (Siemens Medical Solutions) (7,8). Data were acquired in listmode and reconstructed with Fourier rebinning + 2D filtered backprojection. A transmission scan was acquired before radioligand injection for attenuation correction. Dynamic scanning began at the time of a one-minute intravenous bolus injection of the radioligand under study (55 ± 19 MBq; volume 0.2 to 1.0 mL). The injected mass dose was 3 ± 1 nmol/kg. Challenge agents were administered intravenously 10 minutes before the radioligand for pre-blocking studies or 10 minutes after the radioligand for displacement studies. Tomographic images were analyzed with pixel-wise modeling computer software (PMOD 2.6; PMOD Group). Regions-of-interest in the brain were delineated, and time-activity curves calculated as SUV versus time.\nPre-blocking and displacement experiments were performed to assess radioligand target engagement and radioligand selectivity in vivo. […] Areas-under the curve (AUCs) from time-activity curves between 20 and 90 minutes were calculated for each radioligand. AUCs obtained from the same production of radioligand were scaled to the value (or mean value) for the baseline experiment to give relative values (relative AUC20–90 min). […] Where data permitted, the dose-response curves were fitted with GraphPad Prism software (version 8.1.1; GraphPad) to estimate the ED50 values. A dummy value of 100 pmol per kg body weight was used for zero concentration of the challenge agent in the construction of these dose-response curves. Numerical data are expressed as mean ± S.D. for n>2, or as mean and range for n = 2."}, "σ2 receptor": {"target": "σ2 receptor", "conditions": "cited from earlier work"}, "σ1 receptors": {"target": "T2, σ1 receptors (Rattus norvegicus, UniProt Q9R0C9)", "T2 construct": "from tissue; host or cells: brain of living male rats (PET imaging)", "T2 sequence (Q9R0C9 whole entry)": "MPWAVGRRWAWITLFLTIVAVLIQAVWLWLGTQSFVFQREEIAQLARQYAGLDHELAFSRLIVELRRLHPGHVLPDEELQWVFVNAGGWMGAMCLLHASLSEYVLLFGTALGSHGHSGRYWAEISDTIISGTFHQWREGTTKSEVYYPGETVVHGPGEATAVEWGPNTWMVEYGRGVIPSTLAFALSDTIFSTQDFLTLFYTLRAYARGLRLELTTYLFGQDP", "experiment": "ED50 for pre-blocking of ^18F-FTC146 uptake in rat whole brain (PET)", "format": "in vivo", "procedure": "For radioligand injection, a polyethylene catheter (PE 10) was inserted into the penile vein of a male rat and then secured with tissue adhesive and tape. For dynamic scanning, the rats were secured with tape in the scanner and kept under 1.5% isoflurane anesthesia via a nose cone. Body temperature was monitored with a rectal probe. All PET scans were performed on a microPET Focus 220 scanner (Siemens Medical Solutions) (7,8). Data were acquired in listmode and reconstructed with Fourier rebinning + 2D filtered backprojection. A transmission scan was acquired before radioligand injection for attenuation correction. Dynamic scanning began at the time of a one-minute intravenous bolus injection of the radioligand under study (55 ± 19 MBq; volume 0.2 to 1.0 mL). The injected mass dose was 3 ± 1 nmol/kg. Challenge agents were administered intravenously 10 minutes before the radioligand for pre-blocking studies or 10 minutes after the radioligand for displacement studies. Tomographic images were analyzed with pixel-wise modeling computer software (PMOD 2.6; PMOD Group). Regions-of-interest in the brain were delineated, and time-activity curves calculated as SUV versus time.\nPre-blocking and displacement experiments were performed to assess radioligand target engagement and radioligand selectivity in vivo. Normally 4 doses of 0.01 mg/kg, 0.05 mg/kg, 0.25 mg/kg, and 1.25 mg/kg were used for preblocking experiments, and only 2 doses of 0.25 mg/kg and 1.25 mg/kg were used for displacement experiments. […] […] […] […] Where data permitted, the dose-response curves were fitted with GraphPad Prism software (version 8.1.1; GraphPad) to estimate the ED50 values. A dummy value of 100 pmol per kg body weight was used for zero concentration of the challenge agent in the construction of these dose-response curves. Numerical data are expressed as mean ± S.D. for n>2, or as mean and range for n = 2."}, "GluN2B": {"target": "T3, GluN2B (Homo sapiens, UniProt Q05586+Q13224)", "T3 construct": "expressed in transfected cells; host or cells: transiently transfected mouse fibroblast cells (membrane homogenate)", "T3 sequence (Q13224 27-1484, species assumed, other chains not shown)": "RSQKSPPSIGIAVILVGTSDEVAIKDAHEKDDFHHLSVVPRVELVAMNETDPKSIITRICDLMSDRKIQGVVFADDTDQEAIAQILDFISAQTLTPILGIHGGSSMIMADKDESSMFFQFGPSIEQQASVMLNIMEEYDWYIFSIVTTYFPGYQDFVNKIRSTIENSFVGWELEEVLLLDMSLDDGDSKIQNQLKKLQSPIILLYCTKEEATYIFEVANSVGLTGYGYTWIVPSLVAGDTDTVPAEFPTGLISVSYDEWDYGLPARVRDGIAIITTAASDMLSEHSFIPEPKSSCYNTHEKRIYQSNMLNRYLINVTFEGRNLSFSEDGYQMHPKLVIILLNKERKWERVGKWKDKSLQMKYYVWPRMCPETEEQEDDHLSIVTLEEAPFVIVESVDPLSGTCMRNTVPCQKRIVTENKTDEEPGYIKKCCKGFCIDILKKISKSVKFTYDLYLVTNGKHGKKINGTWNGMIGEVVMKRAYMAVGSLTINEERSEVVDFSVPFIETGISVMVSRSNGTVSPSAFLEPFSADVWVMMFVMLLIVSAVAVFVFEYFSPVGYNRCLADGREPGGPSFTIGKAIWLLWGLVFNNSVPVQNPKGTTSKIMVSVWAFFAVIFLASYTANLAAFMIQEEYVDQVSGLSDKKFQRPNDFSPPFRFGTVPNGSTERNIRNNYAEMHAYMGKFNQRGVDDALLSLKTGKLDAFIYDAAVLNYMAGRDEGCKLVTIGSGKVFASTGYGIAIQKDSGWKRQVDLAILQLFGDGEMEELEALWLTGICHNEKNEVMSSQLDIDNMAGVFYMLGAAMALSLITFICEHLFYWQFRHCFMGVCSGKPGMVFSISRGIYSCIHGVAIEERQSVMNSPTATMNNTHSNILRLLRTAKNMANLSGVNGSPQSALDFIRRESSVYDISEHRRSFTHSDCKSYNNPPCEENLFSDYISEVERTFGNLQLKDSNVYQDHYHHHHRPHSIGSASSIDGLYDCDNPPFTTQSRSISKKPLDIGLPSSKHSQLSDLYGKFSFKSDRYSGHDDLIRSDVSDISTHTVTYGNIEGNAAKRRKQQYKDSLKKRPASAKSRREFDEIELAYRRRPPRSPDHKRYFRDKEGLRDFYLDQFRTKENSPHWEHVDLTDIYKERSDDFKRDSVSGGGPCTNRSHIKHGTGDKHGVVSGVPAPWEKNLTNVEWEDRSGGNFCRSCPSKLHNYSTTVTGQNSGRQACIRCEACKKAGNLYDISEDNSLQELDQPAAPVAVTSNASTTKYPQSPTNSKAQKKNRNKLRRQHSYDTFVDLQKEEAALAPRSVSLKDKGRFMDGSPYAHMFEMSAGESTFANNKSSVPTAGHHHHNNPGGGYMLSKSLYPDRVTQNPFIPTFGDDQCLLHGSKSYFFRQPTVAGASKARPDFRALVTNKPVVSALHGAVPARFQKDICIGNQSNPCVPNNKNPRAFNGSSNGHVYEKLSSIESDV", "conditions": "cited from earlier work"}, "[2]": {"conditions": "rat, PET, sixty minutes after injection; cited from earlier work"}, "GluN2B receptors [3]": {"target": "T1, GluN2B receptors", "set-up": "method as in PMID 31924728", "conditions": "pre-blocking, radioligand ^11C-(S)-NR2B-SMe; cited from earlier work"}}, "note": "Read-outs that look alike come from different tables or passages of the source.", "data": [{"molecule": "OC12C3C4CC5C6C4C1C6C(C53)N2CCc1cccc(F)c1", "note": "(stereo not shown) [TC1]", "values": [{"measurement": "Ki", "setting": "σ1 receptor; reference radioligand ^3H-pentazocine, ref 40, read-out: Ki for σ1", "result": 10, "unit": "nM"}, {"measurement": "effect of pre-administration on whole rat brain radioactivity uptake of GluN2B radioligands", "setting": "GluN2B receptors [1]", "result": "strong pre-blocking effects"}, {"measurement": "ED50 in rat whole brain in vivo ^11C-(+)-NR2B-Me", "setting": "GluN2B receptors [1]; pre-blocking", "result": 64, "unit": "nmol/kg"}, {"measurement": "ED50 in rat whole brain in vivo ^11C-(−)-NR2B-Me", "setting": "GluN2B receptors [1]; pre-blocking", "result": 48, "unit": "nmol/kg"}, {"measurement": "Ki", "setting": "σ2 receptor; reference radioligand ^3H-DTG, ref 40, read-out: Ki for σ2", "result": 370, "unit": "nM"}]}, {"molecule": "COc1ccc2c(c1)CCN(CCCCc1ccc(SC)cc1)C[C@H]2O", "note": "[(S)-NR2B-SMe]", "values": [{"measurement": "Ki", "setting": "σ1 receptor; read-out: σ1 Ki", "result": 24, "unit": "nM"}, {"measurement": "ED50 versus ^18F-FTC146", "setting": "σ1 receptors; rat whole brain", "result": "exceeded 1 µmol per kg body weight"}, {"measurement": "Ki", "setting": "σ2 receptor; read-out: σ2 Ki", "result": 140, "unit": "nM"}]}, {"molecule": "(+)-SKF10047", "values": [{"measurement": "Ki", "setting": "σ1 receptor; reference radioligand ^3H-pentazocine, ref 48, read-out: Ki for σ1", "result": 48, "unit": "nM"}, {"measurement": "Ki", "setting": "σ2 receptor; reference radioligand ^3H-DTG, ref 48, read-out: Ki for σ2", "result": 625, "unit": "nM"}]}, {"molecule": "C[C@@H](CN1CCC(Cc2ccccc2)CC1)[C@@H](O)c1ccc(O)cc1", "note": "[Ro-25-6981]", "values": [{"measurement": "Ki", "setting": "GluN2B", "result": 9, "unit": "nM"}]}, {"molecule": "CC(C)=CCN1CC[C@]2(C)c3cc(O)ccc3C[C@H]1[C@H]2C", "note": "[(+)-Pentazocine]", "values": [{"measurement": "ED50 in rat whole brain in vivo ^11C-(−)-NR2B-Me", "setting": "GluN2B receptors [1]; pre-blocking", "result": "> 1000", "unit": "nmol/kg"}]}, {"molecule": "CN(C)CCN(C)CCc1ccc(Cl)c(Cl)c1", "note": "[BD1047]", "values": [{"measurement": "Ki", "setting": "σ1 receptor; reference radioligand ^3H-pentazocine, ref 39, read-out: Ki for σ1", "result": 0.9, "unit": "nM"}, {"measurement": "effect of pre-administration on whole rat brain radioactivity uptake of GluN2B radioligands", "setting": "GluN2B receptors [1]", "result": "minimal effects"}, {"measurement": "ED50 in rat whole brain in vivo ^11C-(+)-NR2B-Me", "setting": "GluN2B receptors [1]; pre-blocking", "result": 555, "unit": "nmol/kg"}, {"measurement": "ED50 in rat whole brain in vivo ^11C-(−)-NR2B-Me", "setting": "GluN2B receptors [1]; pre-blocking", "result": 900, "unit": "nmol/kg"}, {"measurement": "ED50 in rat whole brain in vivo ^11C-(−)-NR2B-SMe", "setting": "GluN2B receptors [1]; pre-blocking, radioligand as printed in Table 3 head", "result": "> 1000", "unit": "nmol/kg"}, {"measurement": "ED50 in rat whole brain in vivo ^18F-FTC146", "setting": "σ1 receptors; radioligand ^18F-FTC146, AUC 20-120 min", "result": 169, "unit": "nmol/kg"}, {"measurement": "Ki", "setting": "σ2 receptor; reference radioligand ^3H-DTG, ref 39, read-out: Ki for σ2", "result": 47, "unit": "nM"}]}, {"molecule": "COc1ccc2c(c1)CCN(CCCCc1ccc(SC)cc1)C[C@@H]2O", "note": "[(R)-NR2B-SMe]", "values": [{"measurement": "Ki", "setting": "σ1 receptor; read-out: σ1 Ki", "result": 88, "unit": "nM"}, {"measurement": "Ki", "setting": "σ2 receptor; read-out: σ2 Ki", "result": 110, "unit": "nM"}]}, {"molecule": "[11CH3]Oc1ccc2c(c1)CCN(CCCCc1ccccc1)C[C@@H]2O", "note": "[(R)-^11C-Me-NB1]", "values": [{"measurement": "radioactivity concentration in cerebellum as % of that in cortex", "setting": "[2]", "result": 79, "unit": "%"}, {"measurement": "radioactivity concentration in cerebellum as % of that in hippocampus", "setting": "[2]", "result": 74, "unit": "%"}, {"measurement": "radioactivity concentration in cerebellum as % of that in striatum", "setting": "[2]", "result": 75, "unit": "%"}, {"measurement": "radioactivity concentration in cerebellum as % of that in thalamus", "setting": "[2]", "result": 83, "unit": "%"}]}, {"molecule": "Cc1ccc(CC2(O)CCN(CCOc3ccc(O)cc3)CC2)cc1", "note": "[CO101,244]", "values": [{"measurement": "ED50 in rat whole brain in vivo ^11C-(S)-NR2B-SMe", "setting": "GluN2B receptors [3]", "result": 74, "unit": "nmol/kg"}, {"measurement": "ED50", "setting": "GluN2B receptors [1]; rat, read-out: ED50 in rat whole brain in vivo ^11C-(+)-NR2B-Me", "result": 0.041, "unit": "µmol/kg"}, {"measurement": "Ki", "setting": "GluN2B", "result": 43, "unit": "nM"}]}]}
